{
  "source": "patent US20230039766A1",
  "about": "“COMBINATION THERAPY” (TURBINE SIMULATED CELL TECHNOLOGIES LTD, priority 2019, published 2023)",
  "key": {"NCIH1975 cell line": {"test_system": "NCIH1975 cell line", "assay": "CellTiter-Glo cell viability assay with Bliss synergy, NCIH1975 cells", "assay_type": "cell-based"}, "BT474 cell line": {"test_system": "BT474 cell line", "assay": "CellTiter-Glo cell viability assay with Bliss synergy, BT474 cells", "assay_type": "cell-based"}},
  "data": [
    {"smiles": "O=C(c1cc(Cc2n[nH]c(=O)c3ccccc23)ccc1F)N1CCN(C(=O)C2CC2)CC1", "note": "[Olaparib]", "values": [
      {"measurement": "Viability/εij", "setting": "NCIH1975 cell line; Olaparib 6.67 μM monotherapy", "result": 0.678},
      {"measurement": "Viability/εij", "setting": "BT474 cell line; Olaparib 6.67 μM monotherapy", "result": 0.825}
    ]},
    {"smiles": "O=c1[nH]c(=S)[nH]c(N=Cc2ccccc2)c1N=Cc1ccccc1", "note": "[SCR7]", "values": [
      {"measurement": "Viability/εij", "setting": "BT474 cell line; SCR7 60 μM monotherapy", "result": 0.653}
    ]},
    {"smiles": "Cn1ncnc1[C@H]1c2n[nH]c(=O)c3cc(F)cc(c23)N[C@@H]1c1ccc(F)cc1", "note": "[Talazoparib]", "values": [
      {"measurement": "Viability/εij", "setting": "NCIH1975 cell line; Talazoparib 0.25 μM monotherapy", "result": 0.597}
    ]}
  ]
}
